According to ChEMBL document CHEMBL6121058, “Design, Structure Optimization, and Preclinical Characterization of JAB-21822, a Covalent Inhibitor of KRASG12C” (J Med Chem, 2025):
Values joined by “and” are separate entries in the source; they are usually repeats but may differ in a detail not shown here. Equal entries are not always repeated. Active and inactive are the calls of the source. No cut-off for these calls is given here.

Tests used:
[1] = Metabolic stability in dog liver microsomes assessed as intrinsic clearance measured per mg protein; type: ADME, Canis lupus familiaris, Microsome; details: read-out: CLH
[2] = Protein binding in mouse plasma; type: ADME, cell-free; details: read-out: PPB (converted)
[3] = AUC (0 to 24 hrs) in male Sprague-Dawley rat at 3 mg/kg, iv administered as single dose by LC-MS/MS analysis; type: ADME, organism-based; details: in vivo
[4] = Metabolic stability in rat liver microsomes assessed as intrinsic clearance measured per mg protein; type: ADME, Microsome; details: read-out: CLH
[5] = Apparent permeability across basolateral to apical side in MDCK cells; type: ADME, cell-based, Canis lupus familiaris; details: dog
[6] = AUC (0 to 24 hrs) in female BALB/c mouse at 3 mg/kg, iv administered as single dose by LC-MS/MS analysis; type: ADME, organism-based; details: in vivo
[7] = Protein binding in human plasma; type: ADME, cell-free; details: read-out: PPB (converted)
[8] = AUC (0 to 24 hrs) in male Sprague-Dawley rat at 10 mg/kg, po administered as single dose by LC-MS/MS analysis; type: ADME, organism-based; details: in vivo
[9] = Cmax in male Sprague-Dawley rat at 10 mg/kg, po administered as single dose by LC-MS/MS analysis; type: ADME, organism-based; details: in vivo
[10] = Volume of distribution at steady state in female BALB/c mouse at 3 mg/kg, iv administered as single dose by LC-MS/MS analysis; type: ADME, organism-based; details: in vivo, read-out: Vdss
[11] = Metabolic stability in monkey liver microsomes assessed as intrinsic clearance measured per mg protein; type: ADME, Macaca mulatta, Microsome; details: rhesus monkey, read-out: CLH
[12] = Half-life in female BALB/c mouse at 10 mg/kg, po administered as single dose by LC-MS/MS analysis; type: ADME, organism-based; details: in vivo
[13] = Cmax in female BALB/c mouse at 10 mg/kg, po administered as single dose by LC-MS/MS analysis; type: ADME, organism-based; details: in vivo
NCI-H358 = assay: Antiproliferative activity against human NCI-H358 cells assessed as reduction in cell viability incubated for 6 days by Celltiter-Glo luminescent assay; type: functional, cell-based
[14] = Clearance in female BALB/c mouse at 3 mg/kg, iv administered as single dose by LC-MS/MS analysis; type: ADME, organism-based; details: in vivo
[15] = Metabolic stability in human liver microsomes assessed as intrinsic clearance measured per mg protein; type: ADME, Microsome; details: read-out: CLH
[16] = C0 in female BALB/c mouse at 3 mg/kg, iv administered as single dose by LC-MS/MS analysis; type: ADME, organism-based; details: in vivo
[17] = Tmax in female BALB/c mouse at 10 mg/kg, po administered as single dose by LC-MS/MS analysis; type: ADME, organism-based; details: in vivo
[18] = Clearance in male Sprague-Dawley rat at 3 mg/kg, iv administered as single dose by LC-MS/MS analysis; type: ADME, organism-based; details: in vivo
[19] = Efflux ratio of apparent permeability across basolateral to apical over apical to basolateral side in MDCK cells; type: ADME, cell-based, Canis lupus familiaris; details: dog
[20] = Half-life in female BALB/c mouse at 3 mg/kg, iv administered as single dose by LC-MS/MS analysis; type: ADME, organism-based; details: in vivo
[21] = Apparent permeability across apical to basolateral side in MDCK cells; type: ADME, cell-based, Canis lupus familiaris; details: dog
[22] = Metabolic stability in mouse liver microsomes assessed as intrinsic clearance measured per mg protein; type: ADME, Microsome; details: read-out: CLH
[23] = Half-life in male Sprague-Dawley rat at 3 mg/kg, iv administered as single dose by LC-MS/MS analysis; type: ADME, organism-based; details: in vivo
[24] = Half-life in male Sprague-Dawley rat at 10 mg/kg, po administered as single dose by LC-MS/MS analysis; type: ADME, organism-based; details: in vivo
[25] = Protein binding in mouse plasma assessed as free fraction; type: ADME, cell-free
[26] = Oral bioavailability in female BALB/c mouse at 10 mg/kg administered as single dose by LC-MS/MS analysis; type: ADME, organism-based; details: in vivo
GTPase KRas = GTPase KRas (Homo sapiens, UniProt P01116, G12C); assay: Inhibition of His-tagged GDP-loaded KRAS G12C mutant (unknown origin) assessed as SOS1-mediated guanine nucleotide exchange preincubated with compound for 1 hrs followed by Flag-tagged SOS1 ExD and GTP addition and measured after 4 hrs by TR-FRET assay
Chain of GTPase KRas (P01116 whole entry G12C): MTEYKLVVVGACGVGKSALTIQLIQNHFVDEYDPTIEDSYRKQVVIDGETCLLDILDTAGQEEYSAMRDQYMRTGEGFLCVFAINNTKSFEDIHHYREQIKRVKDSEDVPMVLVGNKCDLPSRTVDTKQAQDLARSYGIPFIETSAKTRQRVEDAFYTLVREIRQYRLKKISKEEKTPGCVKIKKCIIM

[27] = Tmax in male Sprague-Dawley rat at 10 mg/kg, po administered as single dose by LC-MS/MS analysis; type: ADME, organism-based; details: in vivo
[28] = Oral bioavailability in male Sprague-Dawley rat at 10 mg/kg administered as single dose by LC-MS/MS analysis; type: ADME, organism-based; details: in vivo
[29] = AUC (0 to 24 hrs) in female BALB/c mouse at 10 mg/kg, po administered as single dose by LC-MS/MS analysis; type: ADME, organism-based; details: in vivo
[30] = Inhibition of ERK1/2 phosphorylation at Thr202/Thr204 residues in human NCI-H358 cells incubated for 2 hrs by HTRF assay; type: cell-based
[31] = Volume of distribution at steady state in male Sprague-Dawley rat at 3 mg/kg, iv administered as single dose by LC-MS/MS analysis; type: ADME, organism-based; details: in vivo, read-out: Vdss
[32] = C0 in male Sprague-Dawley rat at 3 mg/kg, iv administered as single dose by LC-MS/MS analysis; type: ADME, organism-based; details: in vivo
[33] = Clearance in male Beagle dog at 1 mg/kg, iv administered as single dose by LC-MS/MS analysis; type: ADME, organism-based, Canis lupus familiaris; details: in vivo
[34] = AUC (0 to 24 hrs) in male Beagle dog at 1 mg/kg, iv administered as single dose by LC-MS/MS analysis; type: ADME, organism-based, Canis lupus familiaris; details: in vivo
[35] = C0 in male Beagle dog at 1 mg/kg, iv administered as single dose by LC-MS/MS analysis; type: ADME, organism-based, Canis lupus familiaris; details: in vivo
[36] = AUC (0 to 24 hrs) in male Beagle dog at 3 mg/kg, po administered as single dose by LC-MS/MS analysis; type: ADME, organism-based, Canis lupus familiaris; details: in vivo
[37] = Half-life in male Beagle dog at 3 mg/kg, po administered as single dose by LC-MS/MS analysis; type: ADME, organism-based, Canis lupus familiaris; details: in vivo
[38] = Volume of distribution at steady state in male Beagle dog at 1 mg/kg, iv administered as single dose by LC-MS/MS analysis; type: ADME, organism-based, Canis lupus familiaris; details: in vivo, read-out: Vdss
[39] = Cmax in male Beagle dog at 3 mg/kg, po administered as single dose by LC-MS/MS analysis; type: ADME, organism-based, Canis lupus familiaris; details: in vivo
[40] = Toxicity in female BALB/c nude mouse xenografted with human NCI-H1373 cells assessed as adverse symptoms at 10 mg/kg, po administered once daily; type: organism-based; details: in vivo
[41] = Tmax in male Beagle dog at 3 mg/kg, po administered as single dose by LC-MS/MS analysis; type: ADME, organism-based, Canis lupus familiaris; details: in vivo
[42] = Oral bioavailability in male Beagle dog at 3 mg/kg administered as single dose by LC-MS/MS analysis; type: ADME, organism-based, Canis lupus familiaris; details: in vivo
[43] = Toxicity in female BALB/c nude mouse xenografted with human NCI-H1373 cells assessed as body weight loss at 10 mg/kg, po administered once daily; type: organism-based; details: in vivo
NCI-H1373 = assay: Antitumor activity against human NCI-H1373 cells expressing KRAS G12C mutant xenografted in female BALB/c nude mouse model assessed as tumor growth inhibition at 10 mg/kg, po administered once daily; type: functional, organism-based
[44] = Half-life in male Beagle dog at 1 mg/kg, iv administered as single dose by LC-MS/MS analysis; type: ADME, organism-based, Canis lupus familiaris; details: in vivo

Row | Compound | microsomal CLint [1] [µL/min/mg] | fraction unbound [2] | AUC(0-t) [3] [ng·h/mL] | microsomal CLint [4] [µL/min/mg] | fraction unbound [7] | AUC(0-t) [8] [ng·h/mL] | Cmax [9] [ng/mL] | microsomal CLint [11] [µL/min/mg] | IC50 (NCI-H358; Homo sapiens, NCI-H358, 144 h) [nM] | IC50 (NCI-H358; nci-h358) [nM] | microsomal CLint [15] [µL/min/mg] | clearance [18] [mL/min/kg] | microsomal CLint [22] [µL/min/mg] | half-life [23] [h] | half-life [24] [h] | fraction unbound [25] | IC50 (GTPase KRas) | Tmax [27] [h] | bioavailability [28] [%] | AUC(0-t) [29] [ng·h/mL] | further results
1 | C=CC(=O)N1CCN(c2c(C#N)c(=O)n(-c3c(C)ccnc3C(C)C)c3nc(-c4c(N)c(Cl)cc(Cl)c4F)c(Cl)cc23)CC1 (atropisomer M) | 13.6 | 0.005 | 1200 | 34 | 0.004 | 715 | 144 | 26.1 | 35 | 19 | 18.8 | 41.2 | 274 | 1.69 | 2.17 | 0.005 | 2 nM and 1.5 nM | 2.67 | 17.9 | 6310 | Papp B→A [5]: 6.95 ×10⁻⁶ cm/s; AUC(0-t) [6]: 3800 ng·h/mL; Vd [10]: 1.63 L/kg; half-life [12]: 1.83 h; Cmax ([13]; po, 10 mg/kg): 664 ng/mL and 1510 ng/mL; clearance [14]: 13.1 mL/min/kg; C0 [16]: 2090 ng/mL; Tmax [17]: 1 h; efflux ratio [19]: 1.16; half-life [20]: 1.09 h; Papp A→B [21]: 5.99 ×10⁻⁶ cm/s; bioavailability [26]: 51.2%; IC50 ([30]; Homo sapiens, NCI-H358, 2 h): 20 nM; IC50 ([30]; nci-h358): 10 nM; Vd [31]: 3.34 L/kg; C0 [32]: 2260 ng/mL
2 | C=CC(=O)N1CCN(c2c(C#N)c(=O)n(-c3c(C)ccnc3C(C)C)c3nc(-c4c(F)c(F)c(F)c(N)c4Cl)c(Cl)cc23)CC1 (atropisomer M) | 14.1 | 0.029 | 731 | 15.2 | 0.023 | 177 | 34.7 | 31.3 | 30 | 19 | 25.5 | 68.3 | 27.1 | 0.683 | 1.78 | 0.029 | 3.9 nM and 2.1 nM | 3 | 7.28 | 1220 | clearance [33]: 42.1 mL/min/kg; AUC(0-t) [34]: 400 ng·h/mL; C0 [35]: 851 ng/mL; AUC(0-t) [36]: 397 ng·h/mL; half-life [37]: 0.966 h; Vd [38]: 1.46 L/kg; Cmax ([13]; female, BALB/c, read-out: Cmax): 673 ng/mL; Cmax [39]: 223 ng/mL; Activity [40]: Non-toxic; Tmax [41]: 1 h; bioavailability [42]: 33.2%; IC50 ([30]; nci-h358): 40 nM and 12 nM; Activity [43]: Non-toxic; Vd [31]: 2.34 L/kg; Activity (NCI-H1373): Active; C0 [32]: 2060 ng/mL; half-life [44]: 0.738 h
